Laboratory results published in patent US20260092071A1, “COMPOUNDS AND COMPOSITIONS AS SMARCA2/4 DEGRADERS AND USES THEREOF” (REGENTS OF THE UNIVERSITY OF MICHIGAN, priority 2022, published 2026).

Legend:
SMARCA4 = SMARCA4 (Homo sapiens, UniProt P51532); experiment: HiBit assay in engineered HT1080 CRISPR knock-in cell, 6 hrs (B series), SMARCA4; type: cell-based; conditions: 6 hrs incubation; for DC50: read-out: SMARC A4 HT1080 HiBit DC50; for Dmax: HT-1080, HT1080 CRISPR knock-in cells, read-out: SMARC A4 HT1080 HiBit Dmax(%)
Method in brief: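 Protein abundance is measured in HiBiT-tagged HT1080 CRISPR knock-in cells after a 6 hr compound treatment (0.1% DMSO) by lytic Nano-Glo HiBiT luminescence.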

SMARCA2 = SMARCA2 (Homo sapiens, UniProt P51531); experiment: HiBit assay in engineered HT1080 CRISPR knock-in cell, 6 hrs (B series), SMARCA2; type: cell-based; conditions: 6 hrs incubation; for DC50: read-out: SMARC A2 HT1080 HiBit DC50; for Dmax: HT-1080, HT1080 CRISPR knock-in cells, read-out: SMARC A2 HT1080 HiBit Dmax (%)
Method in brief: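 HT1080 CRISPR knock-in cells carrying HiBiT-tagged SMARCA2 seeded onto compound (0.1% DMSO) at 2000 cells/well. Incubated 6 h at 37 °C, 5% CO2, then lysed with Nano-Glo HiBiT lytic reagent containing LgBiT, and luminescence read.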

Chain of SMARCA4 (P51532 whole entry): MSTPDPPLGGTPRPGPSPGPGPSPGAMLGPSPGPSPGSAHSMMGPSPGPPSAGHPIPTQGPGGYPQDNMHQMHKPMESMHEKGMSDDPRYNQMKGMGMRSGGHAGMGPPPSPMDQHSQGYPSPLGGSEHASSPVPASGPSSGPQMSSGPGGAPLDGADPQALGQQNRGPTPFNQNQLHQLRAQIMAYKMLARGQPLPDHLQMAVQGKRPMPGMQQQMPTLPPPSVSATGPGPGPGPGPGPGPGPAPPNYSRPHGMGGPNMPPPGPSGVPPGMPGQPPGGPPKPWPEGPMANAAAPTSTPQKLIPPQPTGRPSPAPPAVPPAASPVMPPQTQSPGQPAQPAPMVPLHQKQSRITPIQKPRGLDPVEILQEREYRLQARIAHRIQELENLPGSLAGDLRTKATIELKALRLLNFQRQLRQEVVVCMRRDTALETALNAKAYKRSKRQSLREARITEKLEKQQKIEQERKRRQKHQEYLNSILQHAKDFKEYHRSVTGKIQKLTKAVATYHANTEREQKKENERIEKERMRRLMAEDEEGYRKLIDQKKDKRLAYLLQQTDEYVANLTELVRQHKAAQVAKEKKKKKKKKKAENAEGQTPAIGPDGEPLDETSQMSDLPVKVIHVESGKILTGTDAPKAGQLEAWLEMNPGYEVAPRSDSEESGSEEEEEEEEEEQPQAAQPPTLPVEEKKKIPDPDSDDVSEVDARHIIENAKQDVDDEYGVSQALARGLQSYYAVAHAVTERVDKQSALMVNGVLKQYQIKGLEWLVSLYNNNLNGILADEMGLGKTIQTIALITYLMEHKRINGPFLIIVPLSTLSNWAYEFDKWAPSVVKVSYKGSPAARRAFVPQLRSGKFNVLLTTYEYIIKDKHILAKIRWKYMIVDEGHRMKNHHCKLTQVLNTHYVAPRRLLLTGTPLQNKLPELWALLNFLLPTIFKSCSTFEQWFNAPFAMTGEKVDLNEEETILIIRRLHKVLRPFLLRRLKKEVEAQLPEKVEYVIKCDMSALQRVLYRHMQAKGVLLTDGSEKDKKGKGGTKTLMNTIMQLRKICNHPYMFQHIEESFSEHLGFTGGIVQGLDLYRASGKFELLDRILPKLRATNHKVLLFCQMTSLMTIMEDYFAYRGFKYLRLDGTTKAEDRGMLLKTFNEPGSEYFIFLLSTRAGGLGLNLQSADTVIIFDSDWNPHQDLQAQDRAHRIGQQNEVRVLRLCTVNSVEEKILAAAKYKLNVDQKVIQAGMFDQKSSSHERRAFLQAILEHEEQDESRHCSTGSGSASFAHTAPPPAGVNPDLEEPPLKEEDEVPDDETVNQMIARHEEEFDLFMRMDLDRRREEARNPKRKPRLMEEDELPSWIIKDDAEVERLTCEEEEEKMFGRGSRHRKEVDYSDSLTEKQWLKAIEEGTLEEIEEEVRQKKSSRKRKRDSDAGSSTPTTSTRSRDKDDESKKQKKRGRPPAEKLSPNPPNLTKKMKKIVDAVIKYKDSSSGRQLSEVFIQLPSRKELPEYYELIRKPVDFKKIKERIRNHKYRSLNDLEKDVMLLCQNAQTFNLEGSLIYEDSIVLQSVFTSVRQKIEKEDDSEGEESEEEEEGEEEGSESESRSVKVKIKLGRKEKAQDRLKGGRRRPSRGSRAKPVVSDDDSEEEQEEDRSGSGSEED
Chain of SMARCA2 (P51531 whole entry): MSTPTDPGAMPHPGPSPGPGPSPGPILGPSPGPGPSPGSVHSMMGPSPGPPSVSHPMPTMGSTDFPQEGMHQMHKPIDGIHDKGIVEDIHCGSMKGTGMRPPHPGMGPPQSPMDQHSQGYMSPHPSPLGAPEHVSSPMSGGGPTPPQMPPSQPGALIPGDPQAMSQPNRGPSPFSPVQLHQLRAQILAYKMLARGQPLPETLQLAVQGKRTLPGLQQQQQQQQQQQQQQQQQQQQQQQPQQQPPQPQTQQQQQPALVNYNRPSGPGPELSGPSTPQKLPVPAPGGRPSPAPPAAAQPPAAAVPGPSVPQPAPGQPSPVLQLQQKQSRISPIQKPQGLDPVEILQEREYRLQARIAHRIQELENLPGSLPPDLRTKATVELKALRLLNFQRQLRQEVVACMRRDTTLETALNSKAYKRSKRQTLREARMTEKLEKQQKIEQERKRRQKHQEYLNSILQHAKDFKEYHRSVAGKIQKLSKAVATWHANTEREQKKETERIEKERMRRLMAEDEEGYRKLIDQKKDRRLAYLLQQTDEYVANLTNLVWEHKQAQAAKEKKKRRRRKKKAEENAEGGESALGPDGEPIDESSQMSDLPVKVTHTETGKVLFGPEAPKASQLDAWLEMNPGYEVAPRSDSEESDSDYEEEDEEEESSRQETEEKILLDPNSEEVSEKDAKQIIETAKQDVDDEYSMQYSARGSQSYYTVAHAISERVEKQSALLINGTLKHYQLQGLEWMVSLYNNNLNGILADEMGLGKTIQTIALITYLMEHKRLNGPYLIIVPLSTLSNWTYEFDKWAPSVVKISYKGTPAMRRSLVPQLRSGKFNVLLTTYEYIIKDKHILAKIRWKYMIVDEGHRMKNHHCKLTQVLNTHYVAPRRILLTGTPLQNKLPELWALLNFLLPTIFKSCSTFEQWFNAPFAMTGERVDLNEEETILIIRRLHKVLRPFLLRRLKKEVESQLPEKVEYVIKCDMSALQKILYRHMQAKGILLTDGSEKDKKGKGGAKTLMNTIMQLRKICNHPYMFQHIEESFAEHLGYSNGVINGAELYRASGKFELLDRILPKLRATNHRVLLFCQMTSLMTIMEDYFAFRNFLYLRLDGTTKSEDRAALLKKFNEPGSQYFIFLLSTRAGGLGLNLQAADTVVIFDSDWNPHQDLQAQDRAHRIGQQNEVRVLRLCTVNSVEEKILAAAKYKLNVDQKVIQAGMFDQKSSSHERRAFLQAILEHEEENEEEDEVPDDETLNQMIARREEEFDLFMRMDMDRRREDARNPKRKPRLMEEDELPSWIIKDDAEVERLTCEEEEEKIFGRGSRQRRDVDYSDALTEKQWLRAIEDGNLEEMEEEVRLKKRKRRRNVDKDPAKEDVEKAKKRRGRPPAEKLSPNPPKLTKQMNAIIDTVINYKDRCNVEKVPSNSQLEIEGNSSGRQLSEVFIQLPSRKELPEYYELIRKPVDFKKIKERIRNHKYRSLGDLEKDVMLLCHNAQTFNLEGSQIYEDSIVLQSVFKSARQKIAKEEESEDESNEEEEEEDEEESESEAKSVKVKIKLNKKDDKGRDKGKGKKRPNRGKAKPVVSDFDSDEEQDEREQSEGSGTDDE

Row | SMILES | DC50 (SMARCA4; HT1080 CRISPR knock-in cells) [µM] | Dmax (SMARCA4) [%] | DC50 (SMARCA2; HT1080 CRISPR knock-in cells) [µM] | Dmax (SMARCA2) [%] | SMARC A4 HT1080 HiBit Dmax(%) (SMARCA4; HT1080 CRISPR knock-in cells) | SMARC A2 HT1080 HiBit Dmax (%) (SMARCA2; HT1080 CRISPR knock-in cells)
1 | Cc1ncsc1-c1ccc([C@H](CCCCCn2cc(-c3ccc4c(c3)C(C)(C)c3nc(=O)c5c(Cl)cccc5n3-4)cn2)NC(=O)[C@@H]2C[C@@H](O)CN2C(=O)[C@@H](NC(=O)C2(F)CC2)C(C)(C)C)cc1 [Compound B56, (2S,4R)—N—((S)-6-(4-(4-chloro-7,7-dimethyl-5-oxo-5,7-dihydroindolo[1,2-a]quinazolin-9-yl)-1H-pyrazol-1-yl)-1-(4-(4-methylthiazol-5-yl)phenyl)hexyl)-1-((S)-2-(1-fluorocyclopropane-1-carboxamido)-3,3-dimethylbutanoyl)-4-hydroxypyrrolidine-2-carboxamide] | > 1 | < 50 | 0.1 to 0.5 | < 50 | – | –
2 | Cc1ncsc1-c1ccc([C@H](CC(=O)NCC2CCC(N3CCC(c4ccc5c(c4)-n4c(nc(=O)c6c(Cl)cccc64)C5(C)C)CC3)CC2)NC(=O)[C@@H]2C[C@@H](O)CN2C(=O)[C@@H](NC(=O)C2(F)CC2)C(C)(C)C)cc1 (stereo partly drawn) [Compound B54, (2S,4R)-N-((S)-3-(((4-(4-(4-chloro-7,7-dimethyl-5-oxo-5,7-dihydroindolo[1,2-a]quinazolin-10-yl)piperidin-1-yl)cyclohexyl)methyl)amino)-1-(4-(4-methylthiazol-5-yl)phenyl)-3-oxopropyl)-1-((S)-2-(1-fluorocyclopropane-1-carboxamido)-3,3-dimethylbutanoyl)-4-hydroxypyrrolidine-2-carboxamide] | 0.1 to 0.5 | – | 0.1 to 0.5 | – | D (D (<50% degradation)) | D (D (<50% degradation))
3 | C=C[C@H](NC(=O)[C@@H]1C[C@@H](O)CN1C(=O)[C@@H](NC(=O)[C@H]1CC[C@H](CN2CCC(c3ccc4c(c3)C(C)(C)c3nc(=O)c5c(Cl)cccc5n3-4)CC2)CC1)C(C)(C)C)c1ccc(-c2scnc2C)cc1 [Compound B79, (2S,4R)-1-((S)-2-((11,4S)-4-((4-(4-chloro-7,7-dimethyl-5-oxo-5,7-dihydroindolo[1,2-a]quinazolin-9-yl)piperidin-1-yl)methyl)cyclohexane-1-carboxamido)-3,3-dimethylbutanoyl)-4-hydroxy-N-((S)-1-(4-(4-methylthiazol-5-yl)phenyl)allyl)pyrrolidine-2-carboxamide] | 0.1 to 0.5 | < 50 | < 0.1 | 70 to 90 | – | –
4 | Cc1ncsc1-c1ccc([C@H](C)NC(=O)[C@@H]2C[C@@H](O)CN2C(=O)[C@@H](c2cc(OCCCCN3CCC(c4ccc5c(c4)-n4c(nc(=O)c6c(Cl)cccc64)C5(C)C)CC3)no2)C(C)C)cc1 [Compound B27, (2S,4R)-1-((R)-2-(3-(4-(4-(4-chloro-7,7-dimethyl-5-oxo-5,7-dihydroindolo[1,2-a]quinazolin-10-yl)piperidin-1-yl)butoxy)isoxazol-5-yl)-3-methylbutanoyl)-4-hydroxy-N-((S)-1-(4-(4-methylthiazol-5-yl)phenyl)ethyl)pyrrolidine-2-carboxamide] | < 0.1 | 70 to 90 | < 0.1 | > 90 | – | –
5 | Cc1ncsc1-c1ccc(C2(NC(=O)[C@@H]3C[C@@H](O)CN3C(=O)[C@@H](n3cc([C@H]4CC[C@H](CN5CCC(c6ccc7c(c6)-n6c(nc(=O)c8c(Cl)cccc86)C7(C)C)CC5)CC4)nn3)C(C)(C)C)CNC2)cc1 [Compound B113, (2S,4R)-1-((S)-2-(4-((1r,4S)-4-((4-(4-chloro-7,7-dimethyl-5-oxo-5,7-dihydroindolo[1,2-a]quinazolin-10-yl)piperidin-1-yl)methyl)cyclohexyl)-1H-1,2,3-triazol-1-yl)-3,3-dimethylbutanoyl)-4-hydroxy-N-(3-(4-(4-methylthiazol-5-yl)phenyl)azetidin-3-yl)pyrrolidine-2-carboxamide] | 0.501 to 1 | < 50 | 0.1 to 0.5 | > 90 | – | –
6 | Cc1ncsc1-c1ccc(CNC(=O)[C@@H]2C[C@@H](O)CN2C(=O)[C@@H](NC(=O)C2(F)CC2)C(C)(C)C)c(OCCCN2CCC(c3ccc4c(c3)-n3c(nc(=O)c5c(Cl)cccc53)C4(C)C)CC2)c1 [Compound B39, (2S,4R)-N-(2-(3-(4-(4-chloro-7,7-dimethyl-5-oxo-5,7-dihydroindolo[1,2-a]quinazolin-10-yl)piperidin-1-yl)propoxy)-4-(4-methylthiazol-5-yl)benzyl)-1-((S)-2-(1-fluorocyclopropane-1-carboxamido)-3,3-dimethylbutanoyl)-4-hydroxypyrrolidine-2-carboxamide] | < 0.1 | > 90 | < 0.1 | > 90 | – | –
7 | Cc1ncsc1-c1ccc([C@H](C)NC(=O)[C@@H]2C[C@@H](O)CN2C(=O)[C@H](C(C)C)n2cc([C@H]3CC[C@H](CN4CCN(c5ccc6c(c5)-n5c(nc(=O)c7c(Cl)cccc75)C6(C)C)CC4)CC3)nn2)cc1 [Compound B120, (2S,4R)-1-((S)-2-(4-((1r,4S)-4-((4-(4-chloro-7,7-dimethyl-5-oxo-5,7-dihydroindolo[1,2-a]quinazolin-10-yl)piperazin-1-yl)methyl)cyclohexyl)-1H-1,2,3-triazol-1-yl)-3-methylbutanoyl)-4-hydroxy-N-((S)-1-(4-(4-methylthiazol-5-yl)phenyl)ethyl)pyrrolidine-2-carboxamide] | < 0.1 | 70 to 90 | < 0.1 | > 90 | – | –

The next lines start with the values.

Row | DC50 (SMARCA4; HT1080 CRISPR knock-in cells) [µM] | Dmax (SMARCA4) [%] | DC50 (SMARCA2; HT1080 CRISPR knock-in cells) [µM] | Dmax (SMARCA2) [%] | SMARC A4 HT1080 HiBit Dmax(%) (SMARCA4; HT1080 CRISPR knock-in cells) | SMARC A2 HT1080 HiBit Dmax (%) (SMARCA2; HT1080 CRISPR knock-in cells) | SMILES
8 | < 0.1 | > 90 | < 0.1 | > 90 | – | – | Cc1ncsc1-c1ccc([C@H](C)NC(=O)[C@@H]2C[C@@H](O)CN2C(=O)[C@@H](c2cc(OCCCN3CCC(c4ccc5c(c4)C(C)(C)c4nc(=O)c6c(Cl)cccc6n4-5)CC3)no2)C(C)C)cc1 [Compound B11, (2S,4R)-1-((R)-2-(3-(3-(4-(4-chloro-7,7-dimethyl-5-oxo-5,7-dihydroindolo[1,2-a]quinazolin-9-yl)piperidin-1-yl)propoxy)isoxazol-5-yl)-3-methylbutanoyl)-4-hydroxy-N-((S)-1-(4-(4-methylthiazol-5-yl)phenyl)ethyl)pyrrolidine-2-carboxamide]
9 | < 0.1 | 70 to 90 | < 0.1 | 70 to 90 | – | – | Cc1cc(C(C(=O)N2C[C@H](O)C[C@H]2C(=O)N[C@@H](CN2CCC(c3cccc4c3C(C)(C)c3nc(=O)c5c(Cl)cccc5n3-4)CC2)c2ccc(-c3scnc3C)cc2)C(C)C)on1 (stereo partly drawn) [Compound B153, (2S,4R)-N-((R)-2-(4-(4-chloro-7,7-dimethyl-5-oxo-5,7-dihydroindolo[1,2-a]quinazolin-8-yl)piperidin-1-yl)-1-(4-(4-methylthiazol-5-yl)phenyl)ethyl)-4-hydroxy-1-(3-methyl-2-(3-methylisoxazol-5-yl)butanoyl)pyrrolidine-2-carboxamide]
10 | < 0.1 | 50 to 69 | < 0.1 | > 90 | – | – | C[C@H](NC(=O)[C@@H]1C[C@@H](O)CN1C(=O)[C@@H](n1cc([C@H]2CC[C@H](CN3CCC(c4ccc5c(c4)-n4c(nc(=O)c6c(Cl)cccc64)C5(C)C)CC3)CC2)nn1)C(C)(C)C)c1ccc(-c2scnc2C#CCN2CCOCC2)cc1 [Compound B156, (2S,4R)-1-((R)-2-(4-((1r,4R)-4-((4-(4-chloro-7,7-dimethyl-5-oxo-5,7-dihydroindolo[1,2-a]quinazolin-10-yl)piperidin-1-yl)methyl)cyclohexyl)-1H-1,2,3-triazol-1-yl)-3,3-dimethylbutanoyl)-4-hydroxy-N-((S)-1-(4-(4-(3-morpholinoprop-1-yn-1-yl)thiazol-5-yl)phenyl)ethyl)pyrrolidine-2-carboxamide]
11 | < 0.1 | > 90 | < 0.1 | > 90 | – | – | Cc1ncsc1-c1ccc([C@H](C)NC(=O)[C@@H]2C[C@@H](O)CN2C(=O)[C@H](C(C)C)n2cc(CCCN3CCC(c4ccc5c(c4)C(C)(C)c4nc(=O)c6c(Cl)cccc6n4-5)CC3)nn2)cc1 [Compound B24, (2S,4R)-1-((S)-2-(4-(3-(4-(4-chloro-7,7-dimethyl-5-oxo-5,7-dihydroindolo[1,2-a]quinazolin-9-yl)piperidin-1-yl)propyl)-1H-1,2,3-triazol-1-yl)-3-methylbutanoyl)-4-hydroxy-N—((S)-1-(4-(4-methylthiazol-5-yl)phenyl)ethyl)pyrrolidine-2-carboxamide]
12 | < 0.1 | 50 to 69 | < 0.1 | > 90 | – | – | C[C@H](NC(=O)[C@@H]1C[C@@H](O)CN1C(=O)[C@@H](n1cc(C2CCC(CN3CCN(c4ccc5c(c4)-n4c(nc(=O)c6c(Cl)cccc64)C54CCCCC4)CC3)CC2)nn1)C(C)(C)C)c1ccc(-c2scnc2C#CCN2CCOCC2)cc1 (stereo partly drawn) [Compound B140, (2S,4R)-1-((S)-2-(4-((1s,4R)-4-((4-(4′-chloro-5′-oxo-5′H-spiro[cyclohexane-1,7′-indolo[1,2-a]quinazolin]-10′-yl)piperazin-1-yl)methyl)cyclohexyl)-1H-1,2,3-triazol-1-yl)-3,3-dimethylbutanoyl)-4-hydroxy-N-((S)-1-(4-(4-(3-morpholinoprop-1-yn-1-yl)thiazol-5-yl)phenyl)ethyl)pyrrolidine-2-carboxamide]
